These results are taken from ChEMBL document CHEMBL3102737, “Synthesis of novel pyrano[3,2-f]quinoline, phenanthroline derivatives and studies of their interactions with proteins: an application in mammalian cell imaging” (Eur J Med Chem, 2014).

The test system of this data set is HeLa. The data set is described as follows: Protein binding in human HeLa cells at 1 mM incubated for 10 mins under dark by fluorescence microscopic analysis. It counts as ADME, cell-based. The settings on record: 1000 µM.
For `CC1(C)CC(=O)c2c(ccc3oc(=O)ccc23)N1`, the PB result is recorded as “Active”. Take `CCN1c2ccc3oc(=O)ccc3c2C(=O)CC1(C)C`: the PB result is given as “Active”. In the case of `CN1c2ccc3oc(=O)ccc3c2C(=O)CC1(C)C` it was “Not Active”; in that of `CCN1c2ccc3c(ccc(=O)n3C)c2C(=O)CC1(C)C`, “Active”. The value for `CCn1c(=O)ccc2c3c(ccc21)N(C)C(C)(C)CC3=O` was “Active”; that for `CN1c2ccc3c(ccc(=O)n3C)c2C(=O)CC1(C)C` was “Active”.

As to `CCn1c(=O)ccc2c3c(ccc21)NC(C)(C)CC3=O`, the PB entry is listed as “Active”.

Consider `Cn1c(=O)ccc2c3c(ccc21)NC(C)(C)CC3=O`, for which the PB result was “Not Active”.

Turning to `CCN1c2ccc3c(ccc(=O)n3CC)c2C(=O)CC1(C)C`, the PB result is recorded as “Active”.
